Assay results reported in PMC7356390, “Dehydrozingerone, a Curcumin Analog, as a Potential Anti-Prostate Cancer Inhibitor In Vitro and In Vivo” (Molecules, 2020).

Experiments:
[1] = tested on: cyclin D1 expression in PLS10 cells; assay: Western blot analysis of cyclin D1 expression; format: cell-based, rat; conditions: 48 h, p < 0.01 vs control
Experimental: Cells were treated with Cur (0–20 μM) and DZG (0–200 μM) for 48 h. Cells were harvested for analysis of the cell cycle distribution by the Guava cycle (a,b), while cyclin D1 expression was determined by Western blot analysis (c,d). The level of protein expression was quantified by IMAGE J software. Data are presented as mean ± S.D. of three independent experiments. * p < 0.05 and ** p < 0.01 vs. control (one-way ANOVA, Dunnett’s multiple comparisons test, tested groups vs. control group). […]
Protein concentration was determined using the Bradford method (Thermo Fisher Scientific, Waltham, MA, USA). […]

[2] = tested on: PLS10 cells; set-up: method as in PMID 30499149; conditions: read-out: IC50 of Cur on PLS10 cells (previous study); cited from earlier work
[3] = tested on: HT-29 cells; set-up: method as in PMID 23245566; conditions: cited from earlier work
[4] = intraperitoneal administration of 100 mg/kg; cited from earlier work

SMILES | cyclin D1 expression ([1]; 15 and 20 µM) | IC50 [2] [µM] | cyclin D1 expression ([1]; 150 and 200 µM) | concentration range that suppressed proliferation of HT-29 cells (G2/M arrest) [3] [µM] | effect on serum aspartate aminotransferase, alanine transaminase, serum creatinine, blood urea and lactate dehydrogenase [4]
COc1cc(/C=C/C(=O)CC(=O)/C=C/c2ccc(O)c(OC)c2)ccc1O [Cur, Curcumin] | decreased | 26.5 ± 1.8 |  |  | 
COc1cc(/C=C/C(C)=O)ccc1O [DZG, (E)-4-(4-hydroxy-3-methoxyphenyl)-but-3-en-2-one] |  |  | decreased | 250 to 500 | no effect
